Laboratory results published in US10660928B2, “Pharmaceutical composition containing combination extracts of Moutan Root Bark, Angelica Dahurica Root, bupleurum root or fractions thereof for prevention and treatment of neurodegenerative disorder” (UNIVERSITY-INDUSTRY COOPERATION GROUP OF KYUNG HEE …, priority 2014, dated 2020).

Legend:
XBP1p = experiment: RT-PCR of endoplasmic reticulum stress marker XBP1p, thapsigargin; assay type: cell-based, human; settings: treatment 0.5 μg/ml, thapsigargin 0.5 μg/ml; negative control 100.00
Experimental: (§1) Particularly, SH-SY5Y cells were cultured by the same manner as described in Experimental Example <2-2>, and endoplasmic reticulum stress was induced. Then, RT-PCR was performed with the cells having endoplasmic reticulum stress by the same manner as described in Experimental Example <1-4>, followed by electrophoresis to investigate the expression levels of GRP78 and XBP1p genes on 1.5% agarose gel under UV. The normal control was not treated with the extract of the invention or the active component thereof but treated with DMSO alone. The negative control was not treated with the extract or the active component but treated with 0.5 μg/ml of thapsigargin alone to induce endoplasmic reticulum stress. Then, the expression of the endoplasmic reticulum stress marker gene was confirmed by the same manner as described above.
(§2) Particularly, SH-SY5Y cells were cultured by the same manner as described in Experimental Example <2-2>, and endoplasmic reticulum stress was induced. Then, RT-PCR was performed with the cells having endoplasmic reticulum stress by the same manner as described in Experimental Example <1-4>, followed by electrophoresis to investigate the expression levels of GRP78 and XBP1p genes on 1.5% agarose gel under UV. The normal control was not treated with the extract of the invention but treated with DMSO alone. […]

SH-SY5Y cells [1] = experiment: MTT assay, endoplasmic reticulum stress induced by thapsigargin or tunicamycin; assay type: cell-based, human; settings: treatment 0.5 μg/ml
Experimental: Particularly, SH-SY5Y cells were cultured by the same manner as described in Experimental Example <1-2>. The cells were treated with 1.0 ug/ml of the Angelica Dahurica Root extract prepared in Example <1-2> or 0.5 μg/ml or 1.0 μg/ml of Imperatorin, the active component thereof, followed by culture for 4 hours. The cells were treated with 0.5 μg/ml of thapsigargin (Thap) or 1 μg/ml of tunicamycin (Tuni), followed by culture for 24 hours to induce endoplasmic reticulum stress. Then, MTT assay was performed by the same manner as described in Experimental Example <1-2>. Compared with the normal control cells not treated with the extract or the active component thereof but treated with DMSO, the damage of mitochondria complex 1 in the cells, either increased or decreased, was investigated. The negative control was treated with 0.5 μg/ml of thapsigargin or 1 μg/ml of tunicamycin to cause endoplasmic reticulum stress but not treated with the extract or the active component thereof, followed by MTT assay by the same manner as described above.

[2] = tested on: SH-SY5Y, the human neuroblastoma cell line; experiment: Cell survival rate (calcein) in normal cells, cytotoxicity; assay type: cell-based; settings: human, 4 h, 0.5 μg/ml
Experimental: Particularly, SH-SY5Y, the human neuroblastoma cell line, was inoculated in DMEM/F12 (Dulbeco's Modified Eagle's Medium & Ham's F12; Gibco, USA) supplemented with 10% FBS, followed by culture in a 37° C., 5% CO2/95% air (O2) incubator. Then, the cultured cells were transferred into a serum free medium at the density of 2.5×10^4 cells/well. […] The cells were collected and the cell survival rate was measured by using calcein. The survival rate of the cells that were increased or decreased compared with that of the normal control cells not-treated with the extract or its active component above and instead treated with DMSO was calculated and presented as percentage (%). Particularly, SH-SY5Y cells were cultured by the same manner as described in Experimental Example <1-1>. The cultured cells were transferred in a serum free medium at the density of 2.5×10^4 cells/well. […] The cells were collected and the cell survival rate was measured by using calcein. The cell survival rate that was increased or decreased compared with that of the normal control group not-treated with the extract or its active component above and instead treated with DMSO was calculated and presented as percentage (%).

SH-SY5Y cells [3] = experiment: ATP assay, endoplasmic reticulum stress induced by thapsigargin or tunicamycin; assay type: cell-based, human; settings: treatment 0.5 μg/ml
Experimental: Particularly, SH-SY5Y cells were cultured by the same manner as described in Experimental Example <2-2>, and endoplasmic reticulum stress was induced. Then, the intracellular ATP level was measured by the same manner as described in Experimental Example <1-3>. The normal control was not treated with the extract of the invention or the active component thereof but treated with DMSO alone. All the results were presented as % by the normal control to present the intracellular ATP level. The negative control was not treated with the extract or the active component but treated with 0.5 μg/ml of thapsigargin or 1.0 μg/ml of tunicamycin alone to induce endoplasmic reticulum stress. Then, the Intracellular ATP level was measured by the same manner as described above.

GRP78 = experiment: RT-PCR of endoplasmic reticulum stress marker GRP78, thapsigargin; assay type: cell-based, human; settings: treatment 0.5 μg/ml, thapsigargin 0.5 μg/ml; negative control 100.00
Experimental: as §1, §2

CC(C)=CCOc1c2occc2cc2ccc(=O)oc12 [Imperatorin, 9-[(3-Methyl-2-buten-1-yl)oxy]-7h-furo[3,2-g][1]benzopyran-7-one]
XBP1p/18S mRNA (XBP1p): 4.01 ± 0.05 | MTT (% of control) (SH-SY5Y cells [1]; inducer thapsigargin 0.5 μg/ml): 86.23 ± 5.31 % of control | MTT (% of control) (SH-SY5Y cells [1]; inducer tunicamycin 1.0 μg/ml): 84.93 ± 3.68 % of control | Cell survival rate (% of control) [2]: 101.16 ± 0.59 % of control | Intracellular ATP content (% of control) (SH-SY5Y cells [3]; inducer thapsigargin 0.5 μg/ml): 104.85 ± 5.13 % of control | Intracellular ATP content (% of control) (SH-SY5Y cells [3]; inducer tunicamycin 1.0 μg/ml): 86.00 ± 1.18 % of control | GRP78/18S mRNA (GRP78): 2.97 ± 0.05
